Patent US9556179B2 (BRISTOL-MYERS SQUIBB COMPANY, priority 2012, dated 2017)

Columns and labels:
CK1ε = CK1ε (Homo sapiens (Human), UniProt P49674); test: CK1ε kinase assay (Caliper LABCHIP electrophoretic separation of fluoresceinated peptide substrate and product); type: biochemical; settings: 200 pM enzyme, 50 μM ATP, 22 hours at room temperature
Outline: (§1)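 Each reaction was incubated 22 hours at room temperature and terminated with EDTA. Read-out was microfluidic electrophoretic separation of fluoresceinated substrate and phospho-product.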

CK1δ = CK1δ (Homo sapiens (Human), UniProt P48730); test: CK1δ kinase assay (Caliper LABCHIP electrophoretic separation of fluoresceinated peptide substrate and product); type: biochemical; settings: 200 pM enzyme, 50 μM ATP, 22 hours at room temperature
Chain of CK1δ (P48730 whole entry): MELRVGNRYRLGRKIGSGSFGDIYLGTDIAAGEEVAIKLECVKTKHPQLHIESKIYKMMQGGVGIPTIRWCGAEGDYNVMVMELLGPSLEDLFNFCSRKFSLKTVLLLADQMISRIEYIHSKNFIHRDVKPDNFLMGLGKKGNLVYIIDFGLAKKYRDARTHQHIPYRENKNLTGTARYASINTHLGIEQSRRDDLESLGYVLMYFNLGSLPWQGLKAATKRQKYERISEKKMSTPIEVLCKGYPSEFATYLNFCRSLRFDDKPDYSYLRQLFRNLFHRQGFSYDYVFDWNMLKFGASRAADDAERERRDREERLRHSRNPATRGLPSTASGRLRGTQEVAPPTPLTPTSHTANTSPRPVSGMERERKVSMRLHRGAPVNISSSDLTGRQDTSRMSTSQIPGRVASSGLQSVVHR
Outline: as §1

Chain of CK1ε (P49674 whole entry): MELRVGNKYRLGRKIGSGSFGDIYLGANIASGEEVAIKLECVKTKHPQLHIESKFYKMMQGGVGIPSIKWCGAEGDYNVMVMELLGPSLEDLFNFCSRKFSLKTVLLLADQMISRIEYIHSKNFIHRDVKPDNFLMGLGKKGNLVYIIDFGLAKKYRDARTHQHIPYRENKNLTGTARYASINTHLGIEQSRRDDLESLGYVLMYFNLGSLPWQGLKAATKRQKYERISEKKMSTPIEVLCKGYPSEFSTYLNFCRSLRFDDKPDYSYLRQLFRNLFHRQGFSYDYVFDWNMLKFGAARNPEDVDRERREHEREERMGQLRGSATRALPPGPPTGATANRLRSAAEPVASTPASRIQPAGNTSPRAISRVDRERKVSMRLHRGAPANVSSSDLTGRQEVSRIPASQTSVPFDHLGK

Structure (SMILES)	IC50 (CK1ε) [nM]	IC50 (CK1δ) [nM]
CN1CCN(c2ccc3nc(-c4ccc(F)cc4)c(-c4ccc5nc(NC(=O)c6ccncc6)cn5n4)n3n2)CC1 [Compound 223, N-(2-(4-fluorophenyl)-6-(4-methylpiperazin-1-yl)-[3,6′-biimidazo[1,2-b]pyridazin]-2′-yl)isonicotinamide]	10.1	6.85
Nc1ccc2nc(-c3ccc(F)cc3)c(-c3ccc4nc(NC(=O)c5ccncc5)cn4n3)n2n1 [Compound 224, N-(6-amino-2-(4-fluorophenyl)-[3,6′-biimidazo[1,2-b]pyridazin]-2′-yl)isonicotinamide]	2.81	0.694
CNc1ccc2nc(-c3ccc(F)cc3)c(-c3ccc4nc(NC(=O)c5ccncc5)cn4n3)n2n1 [Compound 225, N-(2-(4-fluorophenyl)-6-(methyl-amino)-[3,6′-biimidazo[1,2-b]pyridazin]-2′-yl)isonicotinamide]	10.4	2.82
O=C(Nc1cn2nc(-c3c(-c4ccc(F)cc4)nc4ccc(N5CCOCC5)nn34)ccc2n1)c1ccncc1 [Compound 226, N-(2-(4-fluorophenyl)-6-morpholino-[3,6′-biimidazo[1,2-b]pyridazin]-2′-yl)isonicotinamide]	10.1	4.94
O=C(Nc1cn2nc(-c3c(-c4ccc(F)cc4)nc4ccc(NC5CCC5)nn34)ccc2n1)c1ccncc1 [Compound 227]	36.9	12.5
Cc1nc(-c2ccc(F)cc2)c(-c2ccc3nc(NC(=O)c4ccncc4)cn3n2)[nH]1 [Compound 228, N-(6-(4-(4-fluorophenyl)-2-methyl-1H-imidazol-5-yl)imidazo[1,2-b]pyridazin-2-yl)isonicotinamide]	1.82	2.07
CCCn1cnc(-c2ccc(F)cc2)c1-c1ccc2nc(NC(=O)c3ccnc(F)c3)cn2n1 [Compound 229, 2-Fluoro-N-(6-(4-(4-fluorophenyl)-1-propyl-1H-imidazol-5-yl)imidazo[1,2-b]pyridazin-2-yl)isonicotinamide]	2.57	0.474
O=C(Nc1cn2nc(-c3c(-c4ccc(F)cc4)ncn3CCO)ccc2n1)c1ccnc(F)c1 [Compound 230, 2-fluoro-N-(6-(4-(4-fluorophenyl)-1-(2-hydroxyethyl)-1H-imidazol-5-yl)imidazo[1,2-b]pyridazin-2-yl)isonicotinamide]	3.38	0.452
Cn1cnc(-c2ccc(F)cc2)c1-c1ccc2nc(NC(=O)c3ccnc(F)c3)cn2n1 [Compound 231, 2-fluoro-N-(6-(4-(4-fluorophenyl)-1-methyl-1H-imidazol-5-yl)imidazo[1,2-b]pyridazin-2-yl) isonicotinamide]	2.91	0.417
CCn1cnc(-c2ccc(F)cc2)c1-c1ccc2nc(NC(=O)c3ccnc(F)c3)cn2n1 [Compound 232, N-(6-(1-ethyl-4-(4-fluorophenyl)-1H-imidazol-5-yl)imidazo[1,2-b]pyridazin-2-yl)-2-fluoroiso-nicotinamide]	1.54	0.322
COCCn1cnc(-c2ccc(F)cc2)c1-c1ccc2nc(NC(=O)c3ccnc(F)c3)cn2n1 [Compound 233, 2-fluoro-N-(6-(4-(4-fluorophenyl)-1-(2-methoxyethyl)-1H-imidazol-5-yl)imidazo[1,2-b]pyridazin-2-yl)isonicotinamide]	1.17	0.306
O=C(Nc1cn2nc(-c3c(-c4ccc(F)cc4)ncn3CCOCCO)ccc2n1)c1ccnc(F)c1 [Compound 234]	2.31	0.456
O=C(Nc1cn2nc(-c3c(-c4ccc(F)cc4)ncn3CC(F)(F)F)ccc2n1)c1ccnc(F)c1 [Compound 236]	1.15	0.266
O=C(Nc1cn2nc(-c3c(-c4ccc(F)cc4)ncn3CC(F)F)ccc2n1)c1ccnc(F)c1 [Compound 237, N-(6-(1-(2,2-difluoroethyl)-4-(4-fluorophenyl)-1H-imidazol-5-yl)imidazo[1,2-b]pyridazin-2-yl)-2-fluoroisonicotinamide]	1.35	0.365
